# Results: article PMC3967766 (Journal of medicinal chemistry, 2013)
# pKi: −log10 of the molar value. “Also recorded” adds a separate entry of the source. Read-outs that look alike come from different tables or passages of the source.
# Columns and labels:
# CB2 receptor [1] = biological target: T1, CB2 receptor (Homo sapiens, UniProt P34972); experiment: cell-based LANCE cAMP assay in CHO cells stably expressing CB2
# CB2 receptor [2] = biological target: T1, CB2 receptor; experiment: [3H]CP-55,940 radioligand competition binding assay, CB2
# RAW 264.7 cells [3] = experiment: RANKL-induced osteoclast formation assay; settings: 5 days; for inhibitory activity on RANKL-induced osteoclast formation: RAW 264.7, RANKL 15 ng/mL; for inhibition rate of osteoclast formation: RANKL 15 ng/mL
# RAW 264.7 cells [4] = experiment: MTT cytotoxicity assay on osteoclast precursors; format: cell-based, mouse; settings: for cell viability versus vehicle control: 1.25 and 2.5 µM; for cell viability: 5 and 10 µM
# CB1 receptor = CB1 receptor (Homo sapiens, UniProt P21554); experiment: [3H]CP-55,940 radioligand competition binding assay, CB1; settings: read-out: Ki (CB1); [3H]CP-55,940 competition, CB1 membrane protein
# Chain of CB1 receptor (P21554 whole entry): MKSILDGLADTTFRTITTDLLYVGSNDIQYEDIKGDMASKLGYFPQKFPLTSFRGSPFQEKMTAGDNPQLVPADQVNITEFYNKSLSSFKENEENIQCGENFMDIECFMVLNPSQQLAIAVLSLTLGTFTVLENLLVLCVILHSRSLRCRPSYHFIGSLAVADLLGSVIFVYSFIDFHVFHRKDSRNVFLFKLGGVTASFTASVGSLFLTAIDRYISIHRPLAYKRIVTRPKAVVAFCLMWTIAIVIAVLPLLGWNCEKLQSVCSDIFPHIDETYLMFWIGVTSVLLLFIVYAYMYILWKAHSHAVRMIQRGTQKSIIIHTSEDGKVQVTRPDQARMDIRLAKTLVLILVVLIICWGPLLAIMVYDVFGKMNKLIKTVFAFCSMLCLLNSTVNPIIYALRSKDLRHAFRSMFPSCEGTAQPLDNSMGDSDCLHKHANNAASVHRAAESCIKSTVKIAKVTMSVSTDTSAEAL
# T1 sequence (P34972 whole entry): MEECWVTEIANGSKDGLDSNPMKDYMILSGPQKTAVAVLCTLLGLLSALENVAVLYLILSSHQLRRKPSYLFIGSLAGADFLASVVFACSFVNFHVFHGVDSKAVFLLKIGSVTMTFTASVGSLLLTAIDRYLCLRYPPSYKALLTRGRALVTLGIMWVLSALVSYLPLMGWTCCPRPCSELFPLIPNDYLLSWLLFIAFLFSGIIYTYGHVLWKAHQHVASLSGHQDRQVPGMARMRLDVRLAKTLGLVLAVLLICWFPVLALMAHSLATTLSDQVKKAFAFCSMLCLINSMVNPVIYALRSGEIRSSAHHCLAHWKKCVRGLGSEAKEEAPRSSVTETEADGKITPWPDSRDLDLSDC
structure (smiles),measurement,setting,value
"CCCCCCC(C)(C)c1cc(OC)c([C@H]2C=C(CO)[C@H]3C[C@@H]2C3(C)C)c(OC)c1 (stereo in doubt) [HU308, reference compound]",CB2 functional activity,CB2 receptor [1]; LANCE cAMP assay,agonists
"CCCCCCC(C)(C)c1ccc([C@@H]2C[C@H](O)CC[C@H]2CCCO)c(O)c1 [CP55940, reference compound]",CB2 functional activity,CB2 receptor [1],agonists
"Cc1ccc(Cn2nc(C(=O)NC3C4(C)CCC(C4)C3(C)C)cc2-c2ccc(Cl)c(C)c2)cc1 (stereo not drawn) [Compound 5, SR144528, reference compound]",CB2 functional activity,CB2 receptor [1],inverse agonists
"CCN(CC)c1ccc(CN([C@]23C[C@H]4C[C@H](C[C@H](C4)C2)C3)S(=O)(=O)c2ccc(F)cc2)cc1 [Compound 21, N-((3s,5s,7s)-Adamantan-1-yl)-N-(4-(diethylamino)benzyl)-4-fluorobenzenesulfonamide]",CB2 functional activity,CB2 receptor [1]; LANCE cAMP assay,inverse agonists
"CCN(CC)c1ccc(CN([C@]23C[C@H]4C[C@H](C[C@H](C4)C2)C3)S(=O)(=O)c2cccc(C)c2)cc1 [Compound 25, N-((3s,5s,7s)-Adamantan-1-yl)-N-(4-(diethylamino)benzyl)-3-methylbenzenesulfonamide]",pKi,CB2 receptor [2],7.60
same,inhibitory activity on RANKL-induced osteoclast formation,RAW 264.7 cells [3],inhibit RANKL-induced osteoclastogenesis in a dose-dependent manner; also recorded: potent inhibitory activity
"CCN(CC)c1ccc(CN(c2ccc(Cl)cc2)S(=O)(=O)c2ccc(OC)cc2)cc1 [Compound 48, N-(4-Chlorophenyl)-N-(4-(diethylamino)benzyl)-4-methoxybenzenesulfonamide]",CB2 functional activity,CB2 receptor [1]; LANCE cAMP assay,inverse agonists
same,cell viability versus vehicle control,"RAW 264.7 cells [4]; 3 days, MTT",not significantly affected
same,cell viability,"RAW 264.7 cells [4]; 3 days, MTT",only some effects on cell viability
same,inhibition rate of osteoclast formation,RAW 264.7 cells [3]; 1 µM,good inhibition activity
same,inhibitory activity on RANKL-induced osteoclast formation,RAW 264.7 cells [3],inhibit RANKL-induced osteoclastogenesis in a dose-dependent manner; also recorded: potent inhibitory activity
"CCN(CC)c1ccc(CN(C(=O)Cc2ccc(Cl)cc2)c2ccc(Cl)cc2)cc1 [Compound 52, N,2-bis(4-Chlorophenyl)-N-(4-(diethylamino)benzyl)acetamide]",pKi,CB1 receptor,< 4.70
"CCN(CC)c1ccc(CN(c2ccc(C)cc2)S(=O)(=O)c2ccccc2)cc1 [Compound 54, N-(4-(Diethylamino)benzyl)-N-(p-tolyl)benzenesulfonamide]",CB2 functional activity,CB2 receptor [1]; LANCE cAMP assay,inverse agonists
"CCN(CC)c1ccc(CN(c2ccc(C)cc2)S(=O)(=O)c2ccc(OC)cc2)cc1 [Compound 57, N-(4-(Diethylamino)benzyl)-4-methoxy-N-(p-tolyl)benzenesulfonamide]",CB2 functional activity,CB2 receptor [1]; LANCE cAMP assay,inverse agonists
same,effect on cell viability,"RAW 264.7 cells [4]; 5 µM, 3 days, MTT",only slight effect on cell viability
same,cell viability versus vehicle control,"RAW 264.7 cells [4]; 3 days, MTT",not significantly affected
same,cell viability,"RAW 264.7 cells [4]; 3 days, MTT",only some effects on cell viability
same,cytotoxic effects on RAW 264.7,"RAW 264.7 cells [4]; cell viability test, overall",very low cytotoxic effects
same,inhibition rate of osteoclast formation,RAW 264.7 cells [3]; 0.1 µM,strongest inhibition activity
same,inhibition rate of osteoclast formation,RAW 264.7 cells [3]; 1 µM,good inhibition activity
same,inhibitory activity on RANKL-induced osteoclast formation,RAW 264.7 cells [3],potent inhibitory activity; also recorded: inhibit RANKL-induced osteoclastogenesis in a dose-dependent manner
